{"source": "patent US20080249132A1", "about": "“Piperidine Carboxyamide Derivate Suitable as Tachykinin Receptor Antagonist” (priority 2005, published 2008)", "target": "T1, recombinant human NK1 receptors (Homo sapiens, UniProt P25103)", "T1 construct": "expressed in transfected cells; membrane preparation", "T1 sequence (P25103 whole entry)": "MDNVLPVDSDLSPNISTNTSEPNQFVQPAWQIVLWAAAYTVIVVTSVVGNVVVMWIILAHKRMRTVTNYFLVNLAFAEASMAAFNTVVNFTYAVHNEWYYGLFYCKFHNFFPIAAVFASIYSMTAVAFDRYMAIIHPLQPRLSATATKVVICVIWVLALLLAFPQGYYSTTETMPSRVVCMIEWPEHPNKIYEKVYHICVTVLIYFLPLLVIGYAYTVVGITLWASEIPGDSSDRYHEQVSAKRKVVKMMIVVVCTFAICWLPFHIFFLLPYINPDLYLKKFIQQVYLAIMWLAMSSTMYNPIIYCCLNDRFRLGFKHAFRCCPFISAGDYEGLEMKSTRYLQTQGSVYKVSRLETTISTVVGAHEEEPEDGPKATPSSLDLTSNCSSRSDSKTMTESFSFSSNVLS", "assay": "NK1 receptor filtration binding assay, displacement of [3H]-Substance P", "conditions": "displacement of [3H]-substance P from recombinant human NK1 receptors expressed in CHO cell membranes; average of at least two determinations; read-out: pKi (negative logarithm of the inhibition constant Ki) (converted)", "experimental": "NK1-receptor binding affinity has been determined in vitro in filtration binding assay by measuring the compounds' ability to displace [^3H]-Substance P (SP) from recombinant human NK1 receptors stably expressed in Chinese Hamster Ovary (CHO) cell membranes prepared by using a modification of the method described by Beattie D. T. et al. (Br. J. Pharmacol, 116:3149-3157, 1995).\nBriefly, ligand binding was performed in 0.4 ml of 50 mM HEPES, pH 7.4, containing 3 mM MnCl2, 0.02% BSA, 0.5 nM [^3H]-Substance P (30-56 Ci/mmol Amersham), a final membrane protein concentration of 30-50 μg/ml, and the test compounds. The incubation proceeded at room temperature for 40 min and was stopped by filtration. Non-specific binding was determined using excess of substance P (1 μM) and represents about 6-10% of the total binding. IC50 values of each compound were determined by an 8-point 10×-dilution inhibition curve. pKi values were calculated using the KD of [^3H]-Substance P determined in a separate experiment.\nThe affinity of the compound of the invention for NK1 receptor was determined using the NK1 receptor binding affinity method measuring in vitro the compounds' ability to displace [3H]—substance P (SP) from recombinant human NK1 receptors expressed in Chinese Hamster Ovary (CHO) cell membranes. […]"}
{"smiles": "CC(=O)NCCN[C@H]1CCN(C(=O)N(C)[C@H](C)c2cc(C(F)(F)F)cc(C(F)(F)F)c2)[C@@H](c2ccc(F)cc2C)C1", "note": "[Example 1, (2R,4S)-4-{[2-(acetylamino)ethyl]amino}-N-{(1R)-1-(3,5-bis(trifluoromethyl)phenyl)ethyl}-2-(4-fluoro-2-methylphenyl)-N-methyl-1-piperidinecarboxamide]", "values": [{"measurement": "Ki", "value": 0.02, "unit": "nM"}]}
